Data published in ChEMBL document CHEMBL3137667, “[Drug-induced liver injury; fourteenth updated edition of the bibliographic database of liver injuries and related drugs]” (Gastroenterol Clin Biol, 2004).

Legend:
[1] = Highest frequency of moderate liver toxicity observed during clinical trials, expressed as a percentage. [column '% BIOL' in source]; conditions: human
[2] = Highest frequency of acute liver toxicity observed during clinical trials, expressed as a percentage. [column '% AIGUE' in source]; conditions: human
[3] = Presence of at least one case with successful reintroduction. [column 'REINT' in source]; conditions: human
[4] = Comments (NB not yet translated). [column 'COMMENTAIRES' in source]; conditions: human
[5] = Times to onset, minimal and maximal, observed in the indexed observations. [column 'DELAI' in source]; conditions: human
[6] = Proposed mechanism(s) of liver damage. [column 'MEC' in source]; conditions: human
[7] = human, serum
[8] = human, serum; remark: listed apart in the source
[9] = human
[10] = human; remark: listed apart in the source
[11] = human; remark: listed apart in the source
[12] = human, serum, 4383 h
[13] = human; remark: listed apart in the source
[14] = human; remark: listed apart in the source
[15] = human; remark: listed apart in the source
[16] = human; remark: listed apart in the source
[17] = human; remark: listed apart in the source
[18] = human; remark: listed apart in the source
[19] = human; remark: listed apart in the source
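Wherever Hepatotoxicity (association with vascular disease) is given: count of indexed literature references reporting vascular liver injury in humans, e.g. peliosis hepatitis, hepatic veno-occlusive disease or Budd-Chiari syndrome.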
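Wherever Hepatotoxicity (benign tumour) is given: value is a count of indexed literature references citing a benign tumour confirmed by histopathology.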
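Wherever Hepatotoxicity (choleostasis) is given: human cholestatic liver injury, shown by histopathology or by peak ALT or AST elevation over alkaline phosphatase ratio below 2, value counts indexed literature reports.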
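Wherever Hepatotoxicity (chronic liver disease) is given: chronic liver injury confirmed by histopathology or persistently raised serum aminotransferase activity beyond 6 months, value given as the count of indexed literature references.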
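Wherever Hepatotoxicity (cirrhosis) is given: value is a count of indexed literature references reporting cirrhosis confirmed by histopathology.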
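Wherever Hepatotoxicity (cytolytic) is given: human cytolytic liver injury, shown by histopathology or by a ratio above 5 of peak ALT or AST elevation to alkaline phosphatase elevation, value counts indexed references.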
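Wherever Hepatotoxicity (granulomatous hepatitis) is given: value is a count of indexed literature references reporting granulomatous liver disease confirmed by histopathology.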
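Wherever Hepatotoxicity (malignant tumour) is given: malignant tumour confirmed by histopathology, value gives the count of indexed literature references reporting it.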
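Wherever Hepatotoxicity (severe hepatitis) is given: human clinical data: severe hepatitis, meaning potentially life-threatening liver failure or clinically observed cases, the value counts how many indexed literature references report it.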
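Wherever Hepatotoxicity (steatosis) is given: steatosis confirmed by histopathology, value is the count of indexed references.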

## CO[C@H]1C[C@H](O[C@H]2[C@H](C)[C@@H](O[C@@H]3O[C@H](C)C[C@H](N(C)C)[C@H]3OC(C)=O)[C@@H](C)C[C@@]3(CO3)C(=O)[C@H](C)[C@@H](OC(C)=O)[C@@H](C)[C@@H](C)OC(=O)[C@@H]2C)O[C@@H](C)[C@@H]1OC(C)=O [TROLEANDOMYCIN]
[1]
  Hepatotoxicity (moderate): 83.3%
[2]
  Hepatotoxicity (acute): 4%
[3]
  Hepatotoxicity (successful reintroduction): yes
[4]
  Hepatotoxicity (comment): CHOLANGITE I/PILULE/RIFAMPICINE RC/ERYTHROMYCINE
[5]
  Hepatotoxicity (time to onset): 3 days - 2 weeks
[6]
  Hepatotoxicity (mechanism): Allergic, Dose-dependant
[7]
  Hepatotoxicity (moderate): 15
[8]
  Hepatotoxicity (acute): 27
[9]
  Hepatotoxicity (cytolytic): 2
[10]
  Hepatotoxicity (choleostasis): 26
[11]
  Hepatotoxicity (severe hepatitis): 0
[12]
  Hepatotoxicity (chronic liver disease): 0
[13]
  Hepatotoxicity (cirrhosis): 0
[14]
  Hepatotoxicity (granulomatous hepatitis): 0
[15]
  Hepatotoxicity (association with vascular disease): 0
[16]
  Hepatotoxicity (steatosis): 0
[17]
  Hepatotoxicity (malignant tumour): 0
[18]
  Hepatotoxicity (benign tumour): 0
[19]
  Hepatotoxicity (animal toxicity known): yes

## CC(C)NNC(=O)c1ccncc1 [IPRONIAZID]
[1]
  Hepatotoxicity (moderate): 30%
[2]
  Hepatotoxicity (acute): 1.4%
[3]
  Hepatotoxicity (successful reintroduction): yes
[4]
  Hepatotoxicity (comment): AC_ANTI-M6 RC/PHENIPRAZINE
[5]
  Hepatotoxicity (time to onset): 3 days - 1 year
[6]
  Hepatotoxicity (mechanism): Allergic, Reactive metabolite
[7]
  Hepatotoxicity (moderate): 2
[8]
  Hepatotoxicity (acute): 30
[9]
  Hepatotoxicity (cytolytic): 28
[10]
  Hepatotoxicity (choleostasis): 3
[11]
  Hepatotoxicity (severe hepatitis): 18
[12]
  Hepatotoxicity (chronic liver disease): 3
[13]
  Hepatotoxicity (cirrhosis): 3
[14]
  Hepatotoxicity (granulomatous hepatitis): 0
[15]
  Hepatotoxicity (association with vascular disease): 0
[16]
  Hepatotoxicity (steatosis): 0
[17]
  Hepatotoxicity (malignant tumour): 0
[18]
  Hepatotoxicity (benign tumour): 0
[19]
  Hepatotoxicity (animal toxicity known): yes

## CN/C(=N/CCSCc1nc[nH]c1C)NC#N [CIMETIDINE]
[1]; Liver
  Hepatotoxicity (moderate): 38%
[2]; Liver
  Hepatotoxicity (acute): 0%
[3]
  Hepatotoxicity (successful reintroduction): yes
[4]
  Hepatotoxicity (comment): RC/FAMOTIDINE I/MEBENDAZOLE
[5]
  Hepatotoxicity (time to onset): 2 days - 2 years
[6]; Liver
  Hepatotoxicity (mechanism): Allergic, Dose-dependant, Toxic Metabolite
[7]
  Hepatotoxicity (moderate): 29
[8]
  Hepatotoxicity (acute): 28
[9]; Liver
  Hepatotoxicity (cytolytic): 20
[10]; Liver
  Hepatotoxicity (choleostasis): 10
[11]; Liver
  Hepatotoxicity (severe hepatitis): 3
[12]
  Hepatotoxicity (chronic liver disease): 1
[13]
  Hepatotoxicity (cirrhosis): 0
[14]; Liver
  Hepatotoxicity (granulomatous hepatitis): 0
[15]
  Hepatotoxicity (association with vascular disease): 0
[16]
  Hepatotoxicity (steatosis): 0
[17]
  Hepatotoxicity (malignant tumour): 0
[18]
  Hepatotoxicity (benign tumour): 0
[19]
  Hepatotoxicity (animal toxicity known): yes

## CC(=O)Nc1ccc(O)cc1 [ACETAMINOPHEN]
[3]
  Hepatotoxicity (successful reintroduction): yes
[4]
  Hepatotoxicity (comment): I/ALCOOL/PHENYTOINE/PHENOBARBITAL/IFN/ZIDOVUDINE #CBP
[5]
  Hepatotoxicity (time to onset): 1 day - 12 years
[6]
  Hepatotoxicity (mechanism): Allergic, Toxic Metabolite
[9]
  Hepatotoxicity (cytolytic): 98
[10]
  Hepatotoxicity (choleostasis): 5
[12]
  Hepatotoxicity (chronic liver disease): 7
[13]
  Hepatotoxicity (cirrhosis): 5
[14]
  Hepatotoxicity (granulomatous hepatitis): 1
[15]
  Hepatotoxicity (association with vascular disease): 0
[16]
  Hepatotoxicity (steatosis): 1
[17]
  Hepatotoxicity (malignant tumour): 0
[18]
  Hepatotoxicity (benign tumour): 0
[19]
  Hepatotoxicity (animal toxicity known): yes

## O=C1CN(/N=C/c2ccc([N+](=O)[O-])o2)C(=O)N1 [NITROFURANTOIN]
[1]; Liver
  Hepatotoxicity (moderate): 0%
[2]; Liver
  Hepatotoxicity (acute): 0%
[3]
  Hepatotoxicity (successful reintroduction): yes
[4]
  Hepatotoxicity (comment): AC_ANTI-ML/-N RC/FURAZOLIDONE/NIFUROXIME CHOLANGITE
[5]
  Hepatotoxicity (time to onset): 2 days - 10 years
[6]; Liver
  Hepatotoxicity (mechanism): Allergic
[7]
  Hepatotoxicity (moderate): 2
[9]; Liver
  Hepatotoxicity (cytolytic): 9
[10]; Liver
  Hepatotoxicity (choleostasis): 27
[11]; Liver
  Hepatotoxicity (severe hepatitis): 8
[12]
  Hepatotoxicity (chronic liver disease): 37
[13]
  Hepatotoxicity (cirrhosis): 7
[14]; Liver
  Hepatotoxicity (granulomatous hepatitis): 2
[15]
  Hepatotoxicity (association with vascular disease): 0
[16]
  Hepatotoxicity (steatosis): 1
[17]
  Hepatotoxicity (malignant tumour): 1
[18]
  Hepatotoxicity (benign tumour): 1
[19]
  Hepatotoxicity (animal toxicity known): yes

## CN(C)CCCN1c2ccccc2CCc2ccccc21 [IMIPRAMINE]
[3]
  Hepatotoxicity (successful reintroduction): yes
[4]
  Hepatotoxicity (comment): RC/DESPRAMINE CHOLESTASE_PROLONGEE
[5]
  Hepatotoxicity (time to onset): 1 week - 1 year
[6]
  Hepatotoxicity (mechanism): Allergic, Reactive metabolite
[9]
  Hepatotoxicity (cytolytic): 9
[10]
  Hepatotoxicity (choleostasis): 13
[12]
  Hepatotoxicity (chronic liver disease): 1
[13]
  Hepatotoxicity (cirrhosis): 0
[14]
  Hepatotoxicity (granulomatous hepatitis): 0
[15]
  Hepatotoxicity (association with vascular disease): 0
[16]
  Hepatotoxicity (steatosis): 0
[17]
  Hepatotoxicity (malignant tumour): 0
[18]
  Hepatotoxicity (benign tumour): 0
[19]
  Hepatotoxicity (animal toxicity known): yes

## CNC(=C[N+](=O)[O-])NCCSCc1ccc(CN(C)C)o1 [RANITIDINE]
[1]
  Hepatotoxicity (moderate): 18.6%
[2]
  Hepatotoxicity (acute): 0%
[3]
  Hepatotoxicity (successful reintroduction): yes
[4]
  Hepatotoxicity (comment): AC_ANTI-ML/-N CHOLANGITE
[5]
  Hepatotoxicity (time to onset): 4 days - 3 months
[6]
  Hepatotoxicity (mechanism): Allergic, Dose-dependant, Toxic Metabolite
[7]
  Hepatotoxicity (moderate): 37
[9]
  Hepatotoxicity (cytolytic): 12
[10]
  Hepatotoxicity (choleostasis): 15
[11]
  Hepatotoxicity (severe hepatitis): 2
[12]
  Hepatotoxicity (chronic liver disease): 1
[13]
  Hepatotoxicity (cirrhosis): 0
[14]
  Hepatotoxicity (granulomatous hepatitis): 1
[15]
  Hepatotoxicity (association with vascular disease): 0
[16]
  Hepatotoxicity (steatosis): 1
[17]
  Hepatotoxicity (malignant tumour): 0
[18]
  Hepatotoxicity (benign tumour): 0
[19]
  Hepatotoxicity (animal toxicity known): yes

## CN1CCN(C2=Nc3cc(Cl)ccc3Nc3ccccc32)CC1 [CLOZAPINE]
[1]
  Hepatotoxicity (moderate): 60%
[2]
  Hepatotoxicity (acute): 1%
[3]
  Hepatotoxicity (successful reintroduction): yes
[4]
  Hepatotoxicity (comment): CHOLANGITE
[5]
  Hepatotoxicity (time to onset): 3 days - 6 weeks
[6]
  Hepatotoxicity (mechanism): Dose-dependant
[7]
  Hepatotoxicity (moderate): 26
[9]
  Hepatotoxicity (cytolytic): 8
[10]
  Hepatotoxicity (choleostasis): 4
[11]
  Hepatotoxicity (severe hepatitis): 1
[12]
  Hepatotoxicity (chronic liver disease): 0
[13]
  Hepatotoxicity (cirrhosis): 0
[14]
  Hepatotoxicity (granulomatous hepatitis): 0
[15]
  Hepatotoxicity (association with vascular disease): 0
[16]
  Hepatotoxicity (steatosis): 0
[17]
  Hepatotoxicity (malignant tumour): 0
[18]
  Hepatotoxicity (benign tumour): 0
[19]
  Hepatotoxicity (animal toxicity known): A

## COc1cccc2c1C(=O)c1c(O)c3c(c(O)c1C2=O)C[C@@](O)(C(=O)CO)C[C@@H]3O[C@H]1C[C@H](N)[C@H](O)[C@H](C)O1 [DOXORUBICIN]
[1]
  Hepatotoxicity (moderate): 84.6%
[3]
  Hepatotoxicity (successful reintroduction): yes
[4]
  Hepatotoxicity (comment): I/MERCAPTOPURINE/VINBLASTINE CHOLANGITE MVO REACTIVATION_HVB
[5]
  Hepatotoxicity (time to onset): 1 week - 3 weeks
[6]
  Hepatotoxicity (mechanism): Reactive metabolite, Dose-dependant
[7]
  Hepatotoxicity (moderate): 8
[8]
  Hepatotoxicity (acute): 7
[9]
  Hepatotoxicity (cytolytic): 4
[10]
  Hepatotoxicity (choleostasis): 3
[11]
  Hepatotoxicity (severe hepatitis): 4
[12]
  Hepatotoxicity (chronic liver disease): 0
[13]
  Hepatotoxicity (cirrhosis): 0
[14]
  Hepatotoxicity (granulomatous hepatitis): 0
[15]
  Hepatotoxicity (association with vascular disease): 5
[16]
  Hepatotoxicity (steatosis): 0
[17]
  Hepatotoxicity (malignant tumour): 1
[18]
  Hepatotoxicity (benign tumour): 0
[19]
  Hepatotoxicity (animal toxicity known): yes
